The results in this text go back to the supplement of paper PMC11061612.

Assay [1] relates to IM-95 (Gastric Carcinoma). Put plainly: Bliss excess, mean over the matrix (fraction); higher = more synergy. The method in brief: (§1)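 After 24 hours at 37°C and 5% CO2 in 1536-well plates, cells in DMEM/F12 or RPMI plus 10% FBS received two-drug dose matrices for 72 hours. Viability came from CellTiter-Glo 2.0 luminescence and was scaled as inhibition, anchored at 0 by vehicle wells and at 1 by blank wells. Combination Emax is taken as the second-highest inhibition in the matrix, and Bliss excess as the observed combination effect less EA + EB − EA·EB, with EA and EB the single-agent effects.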

For assay [2], the system named is OCI-AML3 (Acute Myeloid Leukemia). Described as above. The method in brief:
as §1

In assay [3] the test system is SK-GT-2 (Gastric Carcinoma). The assay is described as above. The method in brief:
as §1

In assay [4] the test system is OCI-AML3 (Acute Myeloid Leukemia). Kind of assay: combination Emax (second highest fraction inhibited in the dose matrix, 72 h); higher = more inhibition; extreme values may be limits of the assay. The method in brief: as §1
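Throughout, for Bliss excess, mean over the matrix: after 72 h of two-drug dosing.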

As to `COc1nnc2ccc(N3CCC(c4ccc(OCCN5CCN(C)C(=O)[C@H]5C)cc4)CC3)nn12` [AZD5153] + C=CCn1c(=O)c2cnc(Nc3ccc(N4CCN(C)CC4)cc3)nc2n1-c1cccc(C(C)(C)O)n1 [AZD1775] (first compound max 1 µM, partner max 1 µM), the Bliss excess was -0.0146 in assay [1], -0.012 in assay [2] and -0.0008 in assay [3]. In assay [4], the “combination Emax” value turned out to be 1.

Take `COc1nnc2ccc(N3CCC(c4ccc(OCCN5CCN(C)C(=O)[C@H]5C)cc4)CC3)nn12` [AZD5153] + CC1(C)CCC(CN2CCN(c3ccc(C(=O)NS(=O)(=O)c4ccc(NCC5CCOCC5)c([N+](=O)[O-])c4)c(Oc4cnc5[nH]ccc5c4)c3)CC2)=C(c2ccc(Cl)cc2)C1 [Venetoclax] (first compound max 1 µM, 7x7, partner max 1 µM): the Bliss excess is -0.0663 in assay [1], -0.052 in assay [2] and -0.028 in assay [3]. Besides, in assay [4], the “combination Emax” value stood at 1.

Turning to `COc1nnc2ccc(N3CCC(c4ccc(OCCN5CCN(C)C(=O)[C@H]5C)cc4)CC3)nn12` [AZD5153] + CCN(CCO)CCCOc1ccc2c(Nc3cc(CC(=O)Nc4cccc(F)c4)[nH]n3)ncnc2c1 [AZD2811] (first compound max 1 µM, 7x7, partner max 1 µM), the Bliss excess was -0.0664 in assay [1], 0.05 in assay [2] and -0.0314 in assay [3]. The “combination Emax” value in assay [4] amounted to 1.

With `COc1nnc2ccc(N3CCC(c4ccc(OCCN5CCN(C)C(=O)[C@H]5C)cc4)CC3)nn12` [AZD5153] + C[C@@H]1COCCN1C2=NC(=NC(=C2)C3(CC3)[S@](=N)(=O)C)C4=C5C=CNC5=NC=C4 [AZD6738] (first compound max 1 µM, 7x7, partner max 10 µM), the Bliss excess was 0.0268 in assay [1], -0.0454 in assay [2] and 0.0773 in assay [3]. Moreover, the “combination Emax” value in assay [4] came out at 1.

Regarding `COc1nnc2ccc(N3CCC(c4ccc(OCCN5CCN(C)C(=O)[C@H]5C)cc4)CC3)nn12` [AZD5153] + Cc1c2c(nn1C)CSCc1cc(n(C)n1)CSc1cc(c3ccccc3c1)OCCCc1c(C(=O)O)n(C)c3c-2c(Cl)ccc13 [AZD5991] (first compound max 1 µM, 7x7, partner max 1 µM), the Bliss excess is -0.0477 in assay [1], -0.0565 in assay [2] and 0.0224 in assay [3]. In addition, the “combination Emax” value in assay [4] was 1.

As to `COc1nnc2ccc(N3CCC(c4ccc(OCCN5CCN(C)C(=O)[C@H]5C)cc4)CC3)nn12` [AZD5153] + Cn1cnc2c(F)c(Nc3ccc(Br)cc3Cl)c(C(=O)NOCCO)cc21 [Selumetinib] (first compound max 1 µM, 7x7, partner max 10 µM), the Bliss excess in assay [1] was 0.0649; in assay [2], -0.0046; in assay [3], 0.0006. Further, the “combination Emax” value in assay [4] was determined as 1.

Turning to `NC1(C(=O)N[C@@H](CCO)c2ccc(Cl)cc2)CCN(c2ncnc3[nH]ccc23)CC1` [Capivasertib] + CC(=O)c1c(C)c2cnc(Nc3ccc(N4CCNCC4)cn3)nc2n(C2CCCC2)c1=O [Palbociclib] (first compound max 10 µM, 7x7, partner max 10 µM), the Bliss excess was 0.0182 in assay [1], 0.0866 in assay [2] and 0.0012 in assay [3]. Also, the “combination Emax” value in assay [4] is 0.587.

For `NC1(C(=O)N[C@@H](CCO)c2ccc(Cl)cc2)CCN(c2ncnc3[nH]ccc23)CC1` [Capivasertib] + CC(C)n1c(=O)n(C)c2cnc3cc(F)c(-c4ccc(OCCCN5CCCCC5)nc4)cc3c21 [AZD1390] (first compound max 10 µM, 7x7, partner max 0.3 µM), the figures for the Bliss excess in assay [1], in assay [2] and in assay [3] were -0.0656, -0.11 and -0.0342, respectively. The “combination Emax” value in assay [4] came to 0.37.

In the case of `NC1(C(=O)N[C@@H](CCO)c2ccc(Cl)cc2)CCN(c2ncnc3[nH]ccc23)CC1` [Capivasertib] + CCN(CCO)CCCOc1ccc2c(Nc3cc(CC(=O)Nc4cccc(F)c4)[nH]n3)ncnc2c1 [AZD2811] (first compound max 10 µM, 7x7, partner max 1 µM), the Bliss excess in assay [1] was -0.0168; in assay [2] it was -0.095; in assay [3] it was -0.0239. The “combination Emax” value in assay [4] is 0.585.

As for `NC1(C(=O)N[C@@H](CCO)c2ccc(Cl)cc2)CCN(c2ncnc3[nH]ccc23)CC1` [Capivasertib] + COc1nnc2ccc(N3CCC(c4ccc(OCCN5CCN(C)C(=O)[C@H]5C)cc4)CC3)nn12 [AZD5153] (first compound max 10 µM, 7x7, partner max 1 µM), the figures for the Bliss excess in assay [1], in assay [2] and in assay [3] were 0.073, -0.014 and 0.0448, respectively. In addition, the “combination Emax” value in assay [4] was found to be 1.

As to `NC1(C(=O)N[C@@H](CCO)c2ccc(Cl)cc2)CCN(c2ncnc3[nH]ccc23)CC1` [Capivasertib] + C[C@@H]1COCCN1C2=NC(=NC(=C2)C3(CC3)[S@](=N)(=O)C)C4=C5C=CNC5=NC=C4 [AZD6738] (first compound max 10 µM, 7x7, partner max 10 µM), the Bliss excess in assay [1] was -0.0093; in assay [2], -0.0224; in assay [3], -0.001. Besides, the “combination Emax” value in assay [4] is 0.891.

For the molecule `NC1(C(=O)N[C@@H](CCO)c2ccc(Cl)cc2)CCN(c2ncnc3[nH]ccc23)CC1` [Capivasertib] + Cn1cnc2c(F)c(Nc3ccc(Br)cc3Cl)c(C(=O)NOCCO)cc21 [Selumetinib] (first compound max 10 µM, 7x7, partner max 10 µM), the Bliss excess is -0.0017 in assay [1], -0.0291 in assay [2] and 0.063 in assay [3]. Besides, the “combination Emax” value in assay [4] was 0.918.

Take `Cc1nc(Nc2ncc(C(=O)Nc3c(C)cccc3Cl)s2)cc(N2CCN(CCO)CC2)n1` [Dasatinib] + CC(=O)Nc1cccc(-n2c(=O)n(C3CC3)c(=O)c3c(Nc4ccc(I)cc4F)n(C)c(=O)c(C)c32)c1 [Trametinib] (first compound max 2 µM, 7x7, partner max 1 µM): the figures for the Bliss excess in assay [1], in assay [2] and in assay [3] were -0.0551, -0.0745 and -0.0013, respectively. For the same molecule, the “combination Emax” value in assay [4] was determined as 0.942.

With `COc1cc2ncnc(Nc3ccc(F)c(Cl)c3)c2cc1OCCCN1CCOCC1` [Gefitinib] + CC(C)n1c(=O)n(C)c2cnc3cc(F)c(-c4ccc(OCCCN5CCCCC5)nc4)cc3c21 [AZD1390] (first compound max 10 µM, 7x7, partner max 0.3 µM), the results for the Bliss excess in assay [1], in assay [2] and in assay [3] were -0.0527, -0.0457 and -0.0382, respectively. In addition, the “combination Emax” value in assay [4] was 0.059.

As for `CS(=O)(=O)CCNCc1ccc(-c2ccc3ncnc(Nc4ccc(OCc5cccc(F)c5)c(Cl)c4)c3c2)o1` [Lapatinib] + C[C@@H](Oc1cc(-c2cnn(C3CCNCC3)c2)cnc1N)c1c(Cl)ccc(F)c1Cl [Crizotinib] (first compound max 10 µM, 7x7, partner max 10 µM), the Bliss excess in assay [1] was 0.0467; in assay [2], -0.0235; in assay [3], -0.0154. Further, in assay [4], the “combination Emax” value came out at 0.846.

With `CS(=O)(=O)CCNCc1ccc(-c2ccc3ncnc(Nc4ccc(OCc5cccc(F)c5)c(Cl)c4)c3c2)o1` [Lapatinib] + Cn1cnc2c(F)c(Nc3ccc(Br)cc3Cl)c(C(=O)NOCCO)cc21 [Selumetinib] (first compound max 10 µM, 7x7, partner max 10 µM), in assay [2], the Bliss excess is -0.0562. Also, the “combination Emax” value in assay [4] came to 0.879.

Take `CS(=O)(=O)CCNCc1ccc(-c2ccc3ncnc(Nc4ccc(OCc5cccc(F)c5)c(Cl)c4)c3c2)o1` [Lapatinib] + NC1(c2ccc(-c3nc4ccn5c(=O)[nH]nc5c4cc3-c3ccccc3)cc2)CCC1 [MK-2206] (first compound max 10 µM, 7x7, partner max 10 µM): the Bliss excess was found to be 0.0488 in assay [1] and 0.0739 in assay [2]. Besides, the “combination Emax” value in assay [4] was 0.683.

In the case of `CC1(C)CCC(CN2CCN(c3ccc(C(=O)NS(=O)(=O)c4ccc(NCC5CCOCC5)c([N+](=O)[O-])c4)c(Oc4cnc5[nH]ccc5c4)c3)CC2)=C(c2ccc(Cl)cc2)C1` [Venetoclax] + C=CCn1c(=O)c2cnc(Nc3ccc(N4CCN(C)CC4)cc3)nc2n1-c1cccc(C(C)(C)O)n1 [AZD1775] (first compound max 1 µM, partner max 1 µM), the Bliss excess was found to be 0.0197 in assay [1] and 0.0014 in assay [3].

`CC1(C)CCC(CN2CCN(c3ccc(C(=O)NS(=O)(=O)c4ccc(NCC5CCOCC5)c([N+](=O)[O-])c4)c(Oc4cnc5[nH]ccc5c4)c3)CC2)=C(c2ccc(Cl)cc2)C1` [Venetoclax] + CCN(CCO)CCCOc1ccc2c(Nc3cc(CC(=O)Nc4cccc(F)c4)[nH]n3)ncnc2c1 [AZD2811] (first compound max 1 µM, 7x7, partner max 1 µM): the Bliss excess in assay [1] is 0.104; in assay [3] it was 0.0136.

Regarding `CC1(C)CCC(CN2CCN(c3ccc(C(=O)NS(=O)(=O)c4ccc(NCC5CCOCC5)c([N+](=O)[O-])c4)c(Oc4cnc5[nH]ccc5c4)c3)CC2)=C(c2ccc(Cl)cc2)C1` [Venetoclax] + CN(C)CCCOc1ccc(-c2ccc3ncc4c(c3c2)n(C2CCOCC2)c(=O)n4C)cn1 [AZD0156] (first compound max 1 µM, 7x7, partner max 1 µM), the Bliss excess is -0.0016 in assay [1] and 0.005 in assay [3].

As to `CC1(C)CCC(CN2CCN(c3ccc(C(=O)NS(=O)(=O)c4ccc(NCC5CCOCC5)c([N+](=O)[O-])c4)c(Oc4cnc5[nH]ccc5c4)c3)CC2)=C(c2ccc(Cl)cc2)C1` [Venetoclax] + COc1cc(Nc2ncc3c(n2)-c2ccc(Cl)cc2C(c2c(F)cccc2OC)=NC3)ccc1C(=O)O [Alisertib] (first compound max 1 µM, 7x7, partner max 10 µM), the Bliss excess in assay [1] was 0.005; in assay [3], -0.0274.

As for `CC1(C)CCC(CN2CCN(c3ccc(C(=O)NS(=O)(=O)c4ccc(NCC5CCOCC5)c([N+](=O)[O-])c4)c(Oc4cnc5[nH]ccc5c4)c3)CC2)=C(c2ccc(Cl)cc2)C1` [Venetoclax] + C[C@@H]1COCCN1C2=NC(=NC(=C2)C3(CC3)[S@](=N)(=O)C)C4=C5C=CNC5=NC=C4 [AZD6738] (first compound max 1 µM, 7x7, partner max 10 µM), the values for the Bliss excess in assay [1] and in assay [3] were -0.0191 and 0.0388, respectively.

As for `CC1(C)CCC(CN2CCN(c3ccc(C(=O)NS(=O)(=O)c4ccc(NCC5CCOCC5)c([N+](=O)[O-])c4)c(Oc4cnc5[nH]ccc5c4)c3)CC2)=C(c2ccc(Cl)cc2)C1` [Venetoclax] + C[C@@H](Nc1cc(F)cc(F)c1)c1cc(C(=O)N(C)C)cc2c(=O)cc(N3CCOCC3)oc12 [AZD8186] (first compound max 1 µM, 7x7, partner max 3 µM), the Bliss excess in assay [1] was -0.068; in assay [3] it was -0.0271.

Turning to `CC1(C)CCC(CN2CCN(c3ccc(C(=O)NS(=O)(=O)c4ccc(NCC5CCOCC5)c([N+](=O)[O-])c4)c(Oc4cnc5[nH]ccc5c4)c3)CC2)=C(c2ccc(Cl)cc2)C1` [Venetoclax] + Cc1cc2ncnn2cc1Nc1ncc2c(n1)n(C1CCOCC1)c(=O)n2C [AZD7648] (first compound max 1 µM, 7x7, partner max 10 µM), the results for the Bliss excess in assay [1] and in assay [3] were -0.0192 and -0.0053, respectively.

Turning to `CC1(C)CCC(CN2CCN(c3ccc(C(=O)NS(=O)(=O)c4ccc(NCC5CCOCC5)c([N+](=O)[O-])c4)c(Oc4cnc5[nH]ccc5c4)c3)CC2)=C(c2ccc(Cl)cc2)C1` [Venetoclax] + Cn1cnc2c(F)c(Nc3ccc(Br)cc3Cl)c(C(=O)NOCCO)cc21 [Selumetinib] (first compound max 1 µM, 7x7, partner max 3 µM), the Bliss excess in assay [1] was -0.0187; in assay [3] it was -0.0251.
